Data from US12661333B2, “Composition for use in treatment of a biofilm in a subject” (TECHNOLOGICAL UNIVERSITY DUBLIN, priority 2020, dated 2026).

Columns and labels:
[1] = system: Klebsiella pneumoniae NCIMB 418; experiment: Biofilm formation in vitro, crystal violet assay; type: cell-based; settings: for reduction of biofilm formation versus control: 24 hours, 37° C., FIG. 1A
Protocol: (§1) FIG. 1: The effect of varying concentrations of DHA on the ability of Klebsiella pneumoniae NCIMB 418 (A) and Enterococcus faecalis ATCC 7080 (B) to form a biofilm in vitro. (10^6 CFU/well was incubated with various concentrations of DHA in a 96 well plate for 24 hours statically at 37° C. Biofilm formation was assessed using the crystal violet assay. Data represents the mean±SD for six independent experiments, carried out in triplicate. One-way ANOVA was performed for statistical analysis. *****P<0.001 compared to both the control (no DHA) and vehicle control (1% DMSO).
FIG. 2: Comparing DNA (16 μM) and Erythromycin (4 μg/ml) individually and adjunct for antibiofilm effects against Klebsiella pneumoniae NCIMB 481 in vitro. 10^6 CFU/well was incubated with each well of a 96 well plate for 24 hours statically at 37° C. Biofilm formation was assessed using the crystal violet assay. Data represents the mean±SD for four independent experiments, carried out in triplicate. One-way ANOVA was performed for statistical analysis. *****P<0.001 compared to both the control (no DHA or Erythromycin), vehicle control (1% DMSO), DHA (16 μM) and Erythromycin (4 μg·mL).
The effect of varying concentrations of DHA on the ability of Klebsiella pneumoniae NCIMB 418 and Enterococcus faecalis ATCC 7080 to form a biofilm in vitro was investigated. 10^6 CFU/well was incubated with various concentrations of DHA in a 96 well plate for 24 hours statically at 37° C. Biofilm formation was assessed using the crystal violet assay. Data represents the mean±SD for six independent experiments, carried out in triplicate. The assay involves seeding cells at 10^^6 CFU/ml in media with DHA. […] The samples is washed again to remove any unbound dye before dissolving the stain in acetic acid and measuring the reading in a spectrophotometer. […]
The effects of DHA (16 μM) and Erythromycin (4 μg/ml) were compared individually and adjunct for antibiofilm effects against Klebsiella pneumoniae NCIMB 481 in vitro. […] Biofilm formation was assessed using the crystal violet assay. […]

[2] = system: human gingival fibroblasts (HGFs); design: dose or concentration left out as unconfirmed; settings: exposed for 24 and 48 hours; cited from earlier work
[3] = system: human periodontal ligament cells (hPDLCs); design: dose or concentration left out as unconfirmed; settings: exposed for 24 and 48 hours; cited from earlier work
[4] = system: Enterococcus faecalis ATCC 7080; experiment: Biofilm formation in vitro, crystal violet assay; type: cell-based; settings: for reduction of biofilm formation versus control: 24 hours, 37° C., FIG. 1B
Protocol: as §1
The effect of varying concentrations of DHA on the ability of Klebsiella pneumoniae NCIMB 418 and Enterococcus faecalis ATCC 7080 to form a biofilm in vitro was investigated. 10^6 CFU/well was incubated with various concentrations of DHA in a 96 well plate for 24 hours statically at 37° C. Biofilm formation was assessed using the crystal violet assay. Data represents the mean±SD for six independent experiments, carried out in triplicate. The assay involves seeding cells at 10^^6 CFU/ml in media with DHA. Cells were then left for 24 hrs to form biofilms before washing and staining with Crystal Violet. Crystal violet adheres to cells stuck to the sides of the tube/well. The samples is washed again to remove any unbound dye before dissolving the stain in acetic acid and measuring the reading in a spectrophotometer. The colour intensity relates to the level of biofilm present. The more colour the more bacteria in the biofilm. Merritt, J. H., Kadouri, D. E. and O'Toole, G. A. (2005) ‘Growing and Analyzing Static Biofilms’, Current Protocols in Microbiology, Chapter 1(Jul), p. Unit 1B.1.

[5] = summary of FIG. 1, concentration not stated

CC/C=C\C/C=C\C/C=C\C/C=C\C/C=C\C/C=C\CCC(=O)O [DHA, docosahexaenoic acid]
reduction of biofilm formation versus control ([1]; DHA 6.25 μM): ~40% | reduction of biofilm formation versus control ([1]; DHA 100 μM): ~65% | reducing biofilm formation [1, 5]: approximately 60% | cytotoxic effects [2]: cytotoxic effects | cytotoxic effects [3]: cytotoxic effects | reduction of biofilm formation versus control ([4]; DHA 6.25 μM): ~20% | reduction of biofilm formation versus control ([4]; DHA 100 μM): ~65% | reducing biofilm formation [4, 5]: approximately 60%
